We go through 15 molecules from PMC9377006, “Discovery of Desmuramylpeptide NOD2 Agonists with Single-Digit Nanomolar Potency” (ACS Medicinal Chemistry Letters, 2022).

Data set [1] relates to K562 cancer cells. Also noted: method as in PMID 34043358. The settings on record: cited from earlier work.
For data set [2], the system named is PBMCs. Kind of data set: Cytokine release from peripheral blood mononuclear cells. The class given is cell-based. The settings on record: human PBMCs, 18 h; NOD2 agonists 1 μM; LPS 10 ng/mL; IFN-γ 200 U/mL. The text has this: Encouraged by the potent NOD2 activity of 40, we preliminarily evaluated its immunostimulatory potential in human primary peripheral blood mononuclear cells (PBMCs). Specifically, we first investigated the ability of 40 to induce cytokine production in PBMCs. While activation of NOD2 alone is sufficient to elicit cytokine responses, these responses are usually of low intensity. However, NOD2 agonists can act in synergy with ligands of other innate immune receptors and proinflammatory cytokines to induce considerably stronger responses. We were particularly intrigued by the synergistic interactions between NOD2, TLR4, and IFN-γ. The synergy between NOD2 agonists and TLR4 agonists in terms of cytokine secretion, including IFN-γ, is well-established.[29],[30] Similarly, IFN-γ has previously been reported to augment the MDP-mediated activation and cytokine production by dendritic cells and macrophages.[31],[32]
Figure 2 Synergistic effects of 40 with LPS and IFN-γ on induction of cytokine production from PBMCs. Cytokine concentrations were measured after 18 h of stimulation with NOD2 agonists (1 μM) in the presence or absence of LPS (10 ng/mL) and IFN-γ (200 U/mL) or the corresponding vehicle (0.1% DMSO; NT). Data are expressed as mean ± SEM of three independent experiments. Statistical significance was determined by one-way ANOVA followed by Bonferroni’s multiple-comparisons test; *, p < 0.05, **, p < 0.01, ***, p < 0.001 versus vehicle-treated control; ##, p < 0.01, ###, p < 0.001 versus 40 or LPS alone.
Figure S5. The effect of 40 on the production of cytokines from human PBMCs is NOD2 -dependent. PBMCs were pre-incubated for 1 h in the presence or absence of the NOD2 antagonist SG84 (10 µM), before the addition of 40 (1 µM). Cytokine concentrations in supernatants were measured after 18 h stimulation.
Data are expressed as mean s ± SEM of 3 independent experiments. Statistical significance was determined by one-way ANOVA followed by Bonferroni’s multiple comparisons test; **, p < 0.01, ***, p < 0.001. […]
4.9 Cytokine release from peripheral blood mononuclear cells
Peripheral blood mononuclear cells were seeded ( 500,000 cells/well) in 24-well plates in 500 µL growth medium and treated with MDP (1 µM), 2 (1 µM), or 40 (1 µM), in the presence or absence of LPS (10 ng/mL) or IFN-γ (200 U/mL), or the corresponding vehicle (0.1% DMSO). In some wells, PBMCs were pre-treated for 1 h with the NOD2 antagonist SG84 (10 µM), before the addition of 40 (1 µM). Cell-free supernatants were collected after 18 h of incubation (37 °C, 5% CO2) and stored at -80 °C until tested.
Cytokine production was determined with BD Cytometric Bead Array human inflammatory cytokines kit (BD Bioscience) on an Attune NxT flow cytometer (Thermo Fisher Scientific, Waltham, MA, USA). Standard curves were generated using recombinant cytokines contained in the kit. The data were analyzed using the FlowJo (Tree Star, Inc., Ashland, OR, USA) and Prism (GraphPad, San Diego, CA, USA) software.

Data set [3] has as its system K562 cancer cells. Put plainly: PBMC cytotoxicity against K562 cancer cells. The class given is cell-based. The conditions noted are these: 1 μM + LPS 1 μg/mL or IFN-γ 200 U/mL, 18 h; 40:1, 4 h. How it is done: In addition, we also investigated the ability of 40, both alone and in combination with LPS and IFN-γ, to induce direct and nonspecific cytolytic activity of PBMCs against cancer cells. For this purpose, we used a functional cytotoxicity assay based on the coincubation of preactivated PBMCs and fluorescently labeled K562 cancer cells.[33] Among the heterogeneous subpopulations of PBMCs, natural killer (NK) cells and, to a lesser extent, monocytes represent the main effector cell types in this assay. NK cells play an essential role in tumor and viral immunosurveillance, both through direct cytolytic destruction of aberrant cells and by facilitating the recruitment and activation of other immune cells through the secretion of cytokines.[34] In addition to their well-established role in cancer immunotherapy, NK cells thus also provide an attractive target in the development of vaccine adjuvants, particularly when Th1 cellular immune responses are preferred.[35] Other cell populations, however, may contribute to the magnitude of NK cell-mediated responses via cytokine secretion. To account for the contribution of these accessory cells and to more accurately represent in vivo conditions, the entire PBMC population was used instead of isolated NK cells.
Figure 3 2 and 40 synergize with LPS and IFN-γ to induce the cytotoxicity of PBMCs against K562 cancer cells. Following 18 h of stimulation of PBMCs with 2 (1 μM) or 40 (1 μM) in the presence or absence of LPS (1 μg/mL) and IFN-γ (200 U/mL) or the corresponding vehicle (0.1% DMSO; NT), K562 cells were added in a 40:1 effector to target cell ratio. Cytotoxicity was determined after 4 h of coincubation. IL-2 (200 U/mL) was used as the positive control. Data are shown as relative activities to vehicle-treated control (0.1% DMSO) and are the means ± SEMs of duplicates of two independent experiments. Statistical significance was determined by one-way ANOVA followed by Dunnet’s multiple-comparisons test; **, p < 0.01, ***, p < 0.001. […]
4.8 Peripheral blood mononuclear cell cytotoxicity
The PBMC cytotoxicity assays using K562 cells were performed as described previously, with some modifications.2 PBMCs were seeded (400,000 cells/well) in duplicates in 96 -well U-bottom plates and treated with 2 (1 µM) or 40 (1 µM), in the presence or absence of LPS (1 µg/mL) or IFN-γ (200 U/mL), IL-2 (200 U/mL), or the corresponding vehicle (0.1% DMSO) for 18 h. K562 were stained with carboxyfluorescein succinimidyl ester (CFSE, Invitrogen, Carlsbad, CA, USA), washed twice with complete medium, and added (10,000 cells/well) to the pre-treated PBMCs for a final effector cell to target tumor cell ratio of 40:1. After a 4 h coincubation (37 °C, 5% CO2), cells were stained with Sytox Blue dead cell stain (Invitrogen) and analyzed using an Attune NxT flow cytometer (Thermo Fisher Scientific, Waltham, MA, USA) and FlowJo software (Tree Star, Inc., Ashland, OR, USA). Cells that were positive for both CFSE and Sytox Blue were defined as dead K562 cells. PBMCs alone and CFSE-labeled K562 cells alone were also treated with the compounds at the same concentrations and stained with Sytox Blue to exclude any direct cytotoxicity of the compounds towards the PBMCs and cancer cells.
4.9 Cytokine release from peripheral blood mononuclear cells […]

For data set [4], the target named is T1, human NOD2 (Homo sapiens, UniProt Q9HC29).
T1 construct: host or cells: HEK-Blue NOD2 cells (derived from HEK293)
Kind of data set: HEK-Blue NOD2 NF-κB SEAP reporter assay (NOD2 agonistic activity). The class given is cell-based. How it is done:
The synthesized desmuramylpeptides were evaluated for their dose-dependent NOD2 activity using the commercially available HEK-Blue NOD2 reporter cell line. This cell line is derived from HEK293 cells by cotransfection of human NOD2 and an NF-κB-inducible secreted embryonic alkaline phosphatase (SEAP). Activation of NOD2 and subsequently of NF-κB leads to the expression and secretion of SEAP, the level of which can be quantified colorimetrically. […]
two passages, 200 µg/mL Zeocin (Invivogen) was added to the medium every other passage to maintain selection pressure. The cells were incubated in a humidified atmosphere at 37 °C and 5% CO 2. […]
Aldrich), and 100 µg/mL streptomycin (Sigma -Aldrich).
The tested compounds were dissolved in DMSO and further di luted in culture medium to the desired final concentrations, such that the final DMSO concentration never exceeded 0.1%. […]
4.6 NOD1/NOD2-NF-kB reporter assay
HEK-Blue NOD2 or NOD1 cells were seeded (25,000 cells/well) in 96 -well plates in 100 µL HEK-Blue detection medium (Invivogen, San Diego, CA, USA) and treated with compounds ( 2 µM for fixed […]
the corresponding vehicle (0.1% DMSO). After 18 h of incubation (37 °C, 5% CO2), secreted embryonic alkaline phosphatase (SEAP) activity was determined spectrophotometrically as absorbance at 630 nm (BioTek Synergy microplate reader; Winooski, VT, USA). EC50 values were calculated using Prism software (version 9; GraphPad Software, CA, USA). The experiments were run in duplicates and repeated as at least three independent biological replicates. […]
In general terms: In a reporter assay the amount or activity of a reporter protein is the signal.

Setting [5] is: HEK-Blue NOD2 cells, 18 h, means ± SEMs of at least three independent experiments, 8 or 16 concentrations (0.1 nM to 20 μM).

T1 sequence (Q9HC29 whole entry): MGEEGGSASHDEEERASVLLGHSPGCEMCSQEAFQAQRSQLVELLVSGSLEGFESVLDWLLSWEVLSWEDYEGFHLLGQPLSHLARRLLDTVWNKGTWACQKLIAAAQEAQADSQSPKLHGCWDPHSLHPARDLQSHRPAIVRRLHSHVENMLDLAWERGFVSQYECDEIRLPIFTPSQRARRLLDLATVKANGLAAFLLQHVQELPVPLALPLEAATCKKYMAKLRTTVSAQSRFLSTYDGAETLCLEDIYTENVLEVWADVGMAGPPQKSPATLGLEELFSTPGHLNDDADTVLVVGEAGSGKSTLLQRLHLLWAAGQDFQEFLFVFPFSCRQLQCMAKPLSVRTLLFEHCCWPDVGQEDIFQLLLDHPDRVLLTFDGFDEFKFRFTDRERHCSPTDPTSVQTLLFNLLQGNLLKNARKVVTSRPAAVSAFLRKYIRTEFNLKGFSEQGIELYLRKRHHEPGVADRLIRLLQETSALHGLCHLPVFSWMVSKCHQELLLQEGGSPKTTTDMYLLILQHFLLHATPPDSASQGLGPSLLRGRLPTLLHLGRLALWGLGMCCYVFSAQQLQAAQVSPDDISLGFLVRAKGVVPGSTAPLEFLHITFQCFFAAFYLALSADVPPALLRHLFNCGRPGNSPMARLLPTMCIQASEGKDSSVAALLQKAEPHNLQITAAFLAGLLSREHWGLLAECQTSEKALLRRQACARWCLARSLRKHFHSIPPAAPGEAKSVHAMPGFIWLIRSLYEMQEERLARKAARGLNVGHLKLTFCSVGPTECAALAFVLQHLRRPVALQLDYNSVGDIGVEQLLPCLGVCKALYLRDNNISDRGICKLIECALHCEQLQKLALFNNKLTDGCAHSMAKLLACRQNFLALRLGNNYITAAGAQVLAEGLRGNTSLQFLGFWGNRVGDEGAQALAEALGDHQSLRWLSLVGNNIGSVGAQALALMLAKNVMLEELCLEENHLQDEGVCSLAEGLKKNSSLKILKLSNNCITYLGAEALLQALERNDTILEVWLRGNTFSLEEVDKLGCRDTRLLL

With `CCOC(=O)CC[C@@H](NC(=O)[C@@H](NC(=O)CNC(=O)/C=C/c1ccc(O)c(OC)c1)C(C)C)C(=O)OCC` [Compound 1], in data set [1], the “induction of cytotoxic activity of PBMCs (previous observations)” value is “failed to induce”.

For `COc1cc(/C=C/C(=O)NCC(=O)N[C@H](C(=O)N[C@H](CCC(=O)OC2CCCC2)C(=O)OC2CCCC2)C(C)C)ccc1O` [Compound 2], the “production of IL-1β, IL-6, IL-8 and TNF-α, stimulant alone” value (“production of IL-1β” for short) in data set [2] is on record as “modest production”. In addition, the “induction of cytotoxic activity of PBMCs (previous observations)” value in data set [1] is on record as “failed to induce”. Further, the “LPS- and IFN-γ-induced cytotoxic activity of PBMCs against K562, costimulation” value in data set [3] was “significantly enhanced”.

As for `CCOC(=O)CC[C@@H](NC(=O)[C@H](Cc1ccncc1)NC(=O)CNC(=O)/C=C/c1ccc(O)c(OC)c1)C(=O)OCC` [Compound 15], the “NOD2 agonistic activity at the highest concentration tested” value in data set [4] (20 μM, HEK-Blue NOD2 cells) is “only minor NOD2 agonistic activity”. Besides, the EC50 in data set [4] (setting [5]) is more than 10000 nM.

For the molecule `CCOC(=O)CC[C@@H](NC(=O)[C@@H](NC(=O)CNC(=O)/C=C/c1ccc(O)c(OC)c1)C12CC3CC(CC(C3)C1)C2)C(=O)OCC` [Compound 16], the EC50 in data set [4] (setting [5]) is more than 10000 nM.

As to `CCOC(=O)CC[C@@H](NC(=O)[C@H](CCc1ccccc1)NC(=O)CNC(=O)/C=C/c1ccc(O)c(OC)c1)C(=O)OCC` [Compound 17], the EC50 in data set [4] (setting [5]) stood at 420 ± 41 nM.

With `CCOC(=O)CC[C@@H](NC(=O)[C@@H](NC(=O)CNC(=O)/C=C/c1ccc2c(c1)OCO2)C(C)C)C(=O)OCC` [Compound 29], the EC50 in data set [4] (HEK-Blue NOD2 cells) was 2670 nM; in data set [4] (setting [5]), 2670 ± 357 nM. The “reduction in potency relative to 1” value in data set [4] (NOD2 EC50 versus compound 1) was found to be 30 fold.

As to `CCOC(=O)CC[C@@H](NC(=O)[C@@H](NC(=O)CNC(=O)c1cc2ccccc2o1)C(C)C)C(=O)OCC` [Compound 30], the EC50 came to 4340 nM in data set [4] (HEK-Blue NOD2 cells) and 4340 ± 468 nM in data set [4] (setting [5]).

On to `CCOC(=O)CC[C@@H](NC(=O)[C@@H](NC(=O)CNC(=O)c1cc2ccc(Br)cc2o1)C(C)C)C(=O)OCC` [Compound 31], for which the results for the EC50 in data set [4] (HEK-Blue NOD2 cells) and in data set [4] (setting [5]) were 1930 nM and 1930 ± 168 nM, respectively.

On to `CCOC(=O)CC[C@@H](NC(=O)[C@@H](NC(=O)CNC(=O)c1cc2cc(Br)ccc2o1)C(C)C)C(=O)OCC` [Compound 32], for which the EC50 in data set [4] (setting [5]) was 316 ± 30 nM.

On to `CCOC(=O)CC[C@@H](NC(=O)[C@@H](NC(=O)CNC(=O)c1cc2cc([N+](=O)[O-])ccc2o1)C(C)C)C(=O)OCC` [Compound 33], for which the EC50 in data set [4] (setting [5]) came to 760 ± 84 nM.

`CCOC(=O)CC[C@@H](NC(=O)[C@@H](NC(=O)CNC(=O)c1nc(-c2ccccc2)oc1C)C(C)C)C(=O)OCC` [Compound 34]: the EC50 turned out to be 2620 nM in data set [4] (HEK-Blue NOD2 cells) and 2620 ± 209 nM in data set [4] (setting [5]).

Regarding `COc1cc(/C=C/C(=O)NCC(=O)N[C@H](C(=O)N[C@H](CCC(=O)OC2CCCC2)C(=O)OC2CCCC2)C(C)C)ccc1OC(=O)CC12CC3CC(CC(C3)C1)C2` [Compound 41], the EC50 in data set [4] (setting [5]) was found to be 44 ± 9 nM.

Turning to `CC(=O)NC1C(O)OC(CO)C(O)C1OC(C)C(=O)NC(C)C(=O)NC(CCC(=O)O)C(N)=O` (stereo not drawn) [MDP, muramyl dipeptide, reference compound], the “production of IL-1β” value in data set [2] was “modest production”. The concentration for a half-maximal effect (EC50) in data set [4] (setting [5]) is 203 ± 12 nM.

In the case of “lipopolysaccharide [LPS, reference compound]”, the “production of IL-1β” value in data set [2] is listed as “strong increase”.

B1: interferon-γ (protein, UniProt P01579 24-161, looked up)
Interferon gamma: QDPYVKEAENLKKYFNAGHSDVADNGTLFLGILKNWKEESDRKIMQSQIVSFYFKLFKNFKDDQSIQKSVETIKEDMNVKFFNSNKKKRDDFEKLTNYSVTDLNVQRKAIHELIQVMAELSPAAKTGKRKRSQMLFRG
notes: proinflammatory cytokine used as costimulus
As to B1, the “production of IL-1β” value in data set [2] is listed as “negligible cytokine secretion”.

The EC50 is the concentration needed to bring the measured effect to its halfway point.
